The source of these data is paper PMC6213020, “Identification of a Novel PPAR-γ Agonist through a Scaffold Tuning Approach” (International Journal of Molecular Sciences, 2018).

Molecules are shown by their SMILES. Where two headings read alike, the source gives them in different places.

For assay [1], the target named is T1, PPAR-γ (Homo sapiens, UniProt P37231).
T1 construct: host or cells: CV-1
T1 sequence (P37231 1-505): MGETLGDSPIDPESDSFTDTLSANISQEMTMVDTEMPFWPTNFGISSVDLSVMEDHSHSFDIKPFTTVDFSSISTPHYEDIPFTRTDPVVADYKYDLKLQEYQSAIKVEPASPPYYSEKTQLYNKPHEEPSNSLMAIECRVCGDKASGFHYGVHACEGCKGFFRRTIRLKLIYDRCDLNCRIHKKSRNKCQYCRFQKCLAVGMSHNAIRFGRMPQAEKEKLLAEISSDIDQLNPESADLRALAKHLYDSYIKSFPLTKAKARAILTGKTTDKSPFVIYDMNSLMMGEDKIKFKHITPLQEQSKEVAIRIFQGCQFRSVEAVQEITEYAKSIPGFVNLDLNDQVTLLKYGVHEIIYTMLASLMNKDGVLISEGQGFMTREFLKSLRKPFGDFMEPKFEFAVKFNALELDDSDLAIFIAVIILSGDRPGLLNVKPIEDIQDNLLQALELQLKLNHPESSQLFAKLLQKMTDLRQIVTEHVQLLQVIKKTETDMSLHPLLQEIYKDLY
Kind of assay: cell-based PPAR transactivation (luciferase) assay, PPAR-γ. Particulars: for activation at 10 µM: 24 h, compounds 10 µM, relative to maximum activation with pioglitazone (10 µM), PPAR-Luc in CV-1 cells, read-out: % max PPAR-γ. Here is the method: The PPAR activities of the synthesized dichloroanilide-linked indole analogs were assessed using a standard cell-based transactivation assay in CV-1 cells. GW7647 [42], pioglitazone, and GW0742 [43] were used as positive controls for PPAR-α, -γ, and -δ, respectively. These three positive controls presented the maximum activation for each PPAR subtype. The activity of the compounds was presented as the activation percentage (%) relative to the maximum values of the positive controls at the indicated concentrations.
Transient transfection and luciferase assay was carried out. CV-1 cells were seeded in 48-well plates at a density of 1.5 × 10^5 cells/well in Dulbecco’s modified Eagle’s medium (DMEM) with containing 10% fetal bovine serum (FBS). The cells were transiently transfected with plasmid mixtures containing PPAR-α/γ expression vector and tk-PPRE-luciferase (Luc) vector for 6 h and then treated with the samples for 24 h. HEK293t cells were seeded in a 60-mm dish at a density of 1.5 × 10^6 cells/dish. After transfection with the plasmid mixtures containing PPAR-δ expression vector and Luc vector for 6 h, the cells were transferred to a 96-well plate and treated with the samples. To normalize the transfection efficiency, a β-galactosidase plasmid was cotransfected. The luciferase activity in the cell lysates was measured using a luciferase assay system (Promega Corp., Madison, WI, USA), and the β-galactosidase activity was determined by measuring the absorbance at 410 nm using an ELISA plate reader. The data were expressed as the relative luciferase activity divided by the β-galactosidase activity. All constructs were kindly gifted by Dr. Ronald M. Evans at The Salk Institute (La Jolla, CA, USA).

For assay [2], the target named is T2, PPAR-γ (Homo sapiens, UniProt P37231).
T2 construct: purchased Invitrogen / Thermo Fisher Scientific (assay service)
T2 sequence (P37231 238-503 limits assumed): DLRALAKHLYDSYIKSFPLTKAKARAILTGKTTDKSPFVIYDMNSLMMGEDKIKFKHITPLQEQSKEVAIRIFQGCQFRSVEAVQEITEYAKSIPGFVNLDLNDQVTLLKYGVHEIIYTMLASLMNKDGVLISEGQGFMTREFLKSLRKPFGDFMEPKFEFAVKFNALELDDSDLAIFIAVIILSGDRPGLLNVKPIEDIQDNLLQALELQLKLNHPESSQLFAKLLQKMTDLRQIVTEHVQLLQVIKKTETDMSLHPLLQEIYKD
Kind of assay: TR-FRET LanthaScreen PPAR coactivator recruit assay, PPAR-γ (TRAP220/DRIP2 peptide). The class given is biochemical. Particulars: for EC50: TR-FRET coactivator recruit assay. From the text:
Binding of agonist to the PPAR LBD causes a conformational change around helix 12 in the LBD, resulting in higher affinity for the coactivator peptide. When the terbium label on the anti-GST antibody complexed with PPAR is excited at 340 nm, energy is transferred to the fluorescein label on the coactivator peptide and detected as emission at 520 nm. […] Based on the biology of the PPAR-coactivator peptide interaction, this ligand EC50 is a composite value representing the amount of ligand required to bind to receptor, effect a conformational change, and recruit coactivator peptide. Potency of compounds show similar order to their activity (Table 3). […] Ligands such as TZDs show little or no binding to PPAR-δ. Compound 11 and 15 have ortho or meta substituted benzoic acid as an acidic head group. Their acidic head groups might seem to be too large to fit within the narrow PPAR-δ pocket. In contrast, the compound 1 and 2 contains an acetic acid head group that complements the narrow PPAR-δ ligand binding. […] The potency and selectivity of compound 11 could be explained by harmonization of steric effect of acidic head group, length and rigidity of hydrophobic tail, and properly tuned aromatic linker system.
EC50 of compounds were determined by recruitment of transcriptional coactivators using the TR-FRET based Lanthascreen coactivator assays (Invitrogen, Carlsbad, CA, USA). Which was serviced by Thermo Fisher Scientific (Medicon, WI, USA) according to the LanthaScreen TR-FRET coregulator protocol and assay conditions. Coregulator peptide PGC1a, TRAP220/DRIP2 and C33 was used for the coactivator recruit assay of PPAR-α, -γ, and -δ, respectively.

As for `O=C(COc1ccc2ccn(Cc3ccccc3C(=O)O)c2c1)Nc1ccc(Cl)cc1Cl` [Compound 13, 2-((6-(2-((2,4-Dichlorophenyl)amino)-2-oxoethoxy)-1H-indol-1-yl)methyl)benzoic acid], the activation at 10 µM on PPAR-γ [1] was 74.5 ± 0.94%. Further, the 50% effective concentration (EC50) (usually the midpoint of the concentration-response curve) at PPAR-γ [2] (read-out: EC50 PPAR-γ) was 571 nM.
Taken in the same sequence, the figures for `O=C(COc1ccc2c(c1)c(Cc1ccccc1)cn2Cc1ccccc1C(=O)O)Nc1ccc(Cl)cc1Cl` [Compound 18, 2-((3-Benzyl-5-(2-((2,4-dichlorophenyl)amino)-2-oxoethoxy)-1H-indol-1-yl)methyl)benzoic acid] were 93.2 ± 0.59% and over 11100 nM.
Consider `O=C(COc1ccc2c(ccn2Cc2ccccc2C(=O)O)c1)Nc1ccc(Cl)cc1Cl` [Compound 12, 2-((5-(2-((2,4-Dichlorophenyl)amino)-2-oxoethoxy)-1H-indol-1-yl)methyl)benzoic acid], for which, at PPAR-γ [1], the activation at 10 µM amounted to 189.2 ± 1.67%. For the same compound, on PPAR-γ [1] (cell-based reporter assay), the “PPAR-γ activity relative to that of pioglitazone” value was “approximately 2 fold”. In addition, on PPAR-γ [2] (read-out: EC50 PPAR-γ), the EC50 is 1.96 nM. Besides, at PPAR-γ [2] (from coactivator recruit EC50), the “selectivity for PPAR-γ to PPAR-α” value is 1,970 fold and the “selectivity for PPAR-γ to PPAR-δ” value is 16,600 fold.
For the compound `O=C(COc1ccc2ccn(Cc3cccc(C(=O)O)c3)c2c1)Nc1ccc(Cl)cc1Cl` [Compound 15, 3-((6-(2-((2,4-Dichlorophenyl)amino)-2-oxoethoxy)-1H-indol-1-yl)methyl)benzoic acid], the activation at 10 µM at PPAR-γ [1] was 126.5 ± 0.92%. Moreover, the results for the EC50 at PPAR-γ [2] (read-out: EC50 PPAR-γ) and on PPAR-γ [2] (read-out: EC50 to PPAR-γ) were 32.6 nM and 32.3 nM, respectively.
